Several values for one entry are separate records, joined by “and”; a condition that tells them apart may be missing. Equal values may be shown once.
How the values were obtained:
[1] = HPLC stability study in phosphate buffer; type: physicochemical; settings: pH values in the range 4–9
Procedure: Analytical high-performance liquid chromatography (HPLC) stability studies were performed using a Symmetry® column (C18, 5 µm, 4.6 × 150 mm), a Waters 2487 Dual Wavelength Absorbance detector, a Waters 1525 binary HPLC pump and a Waters 717 plus Autosampler (Waters Corporation, Milford, MA, USA). Samples were detected at wavelength of 254 nm. All samples were analysed using acetonitrile (80%):water (20%) as the mobile phase over 10 min and a flow rate of 1 mL/min. Stock solutions are prepared by dissolving 5mg of compound in 10 mL of mobile phase. Phosphate buffers at the desired pH values (4, 7.4, and 9) were prepared in accordance with the British Pharmacopoeia monograph 2015. 30 µL of stock solution was diluted with 1 mL of appropriate buffer, shaken and injected immediately. Samples were withdrawn and analysed at time intervals of t = 0 min, 5 min, 30 min, 60 min, 90 min, 120 min, 24 h and 48 h.

[2] = tested on: MCF-7 human breast cancer cells; assay: MTT assay for antiproliferative effects in MCF-7; type: cell-based; settings: Homo sapiens, MCF7, MCF-7, MTT assay
Procedure: (§1) The human breast carcinoma cell line, MCF-7, was purchased from the European Collection of Animal Cell Cultures (ECACC). The cells were maintained in MCF-7 complete medium; consisting of Eagle’s Minimum Essential Medium (MEM) supplemented with 10% (v/v) Foetal Bovine Serum (FBS), 2 mM L-glutamine, 100 μg/mL penicillin/streptomycin and 1% (v/v) non-essential amino acids. Cell cultures were maintained at 37 °C under a humidified atmosphere of 5% CO2/95% O2. The human breast carcinoma cell line, MDA, was purchased from the European Collection of Animal Cell Cultures (ECACC). The cells were maintained in MDA complete medium; consisting of Dulbecco’s Modified Eagle’s Medium (D-MEM) supplemented with 10% (v/v) Foetal Bovine Serum (FBS), 2 mM L-glutamine, 100 μg/mL penicillin/streptomycin. Cell cultures were maintained at 37 °C under a humidified atmosphere of 5% CO2/95% O2. The MTT assay was performed according to the reported protocol. The tetrazolium salt, 3-(4,5-dimethylthiazol-2-yl)-2,5-diphenyltetrazolium bromide (MTT) is taken up only by metabolically active cells and cleaved to form a formazan dye by mitochondrial dehydrogenases. Assays where repeated in three experiments performed in triplicate (unless otherwise stated) and reported results represent the mean value ± standard error mean. Graphs of percentage cell viability versus concentration of the subject compound were processed using PRISM [31].

[3] = tested on: MDA-MB-231 human breast cancer cells; assay: MTT assay for antiproliferative effects in MDA-MB-231; type: cell-based; settings: MDA-MB-231, MTT assay
Procedure: as §1, with “Cell cultures were maintained at 37 °C under a humidified atmosphere of 5% CO2/95% O2.” left out, “Assays where repeated in three experiments performed in triplicate (unless otherwise stated) and reported results represent the mean value ± standard error mean.” left out

[4] = tested on: MCF-7 human breast cancer cells; assay: Lactate dehydrogenase (LDH) cytotoxicity assay in MCF-7; type: cell-based; settings: % cell lysis at 10 µM
Procedure: (§2) In this assay, the release of cytoplasmic lactate dehydrogenase (LDH) is used as a measure of cell lysis. MCF-7 and MDA-MB-231 cells were seeded at a density of 1 × 10^4 cells/well in a 96-well plate and incubated for 24 h. The cells were then dosed with 2 μL volumes of the test compounds, over the concentration range 1 nM–50 μM. Cytotoxicity was determined using the CytoTox 96 nonradioactive cytotoxicity assay (Promega, Madison, WI, USA) following the manufacturer’s protocol.

[5] = tested on: MDA-MB-231 human breast cancer cells; assay: Lactate dehydrogenase (LDH) cytotoxicity assay in MDA-MB-231; type: cell-based; settings: % cell lysis at 10 μM
Procedure: as §2

human ERα = biological target: T1, human ERα (Homo sapiens, UniProt P03372); assay: Estrogen receptor fluorescence polarisation competitive binding assay, ERα; settings: for IC50: competitive binding, fluoromone ligand; for Selectivity (α/β): ratio of ER binding IC50 values
T1 construct: purchased Invitrogen; host or cells: baculovirus expression system
T1 sequence (P03372 1-595): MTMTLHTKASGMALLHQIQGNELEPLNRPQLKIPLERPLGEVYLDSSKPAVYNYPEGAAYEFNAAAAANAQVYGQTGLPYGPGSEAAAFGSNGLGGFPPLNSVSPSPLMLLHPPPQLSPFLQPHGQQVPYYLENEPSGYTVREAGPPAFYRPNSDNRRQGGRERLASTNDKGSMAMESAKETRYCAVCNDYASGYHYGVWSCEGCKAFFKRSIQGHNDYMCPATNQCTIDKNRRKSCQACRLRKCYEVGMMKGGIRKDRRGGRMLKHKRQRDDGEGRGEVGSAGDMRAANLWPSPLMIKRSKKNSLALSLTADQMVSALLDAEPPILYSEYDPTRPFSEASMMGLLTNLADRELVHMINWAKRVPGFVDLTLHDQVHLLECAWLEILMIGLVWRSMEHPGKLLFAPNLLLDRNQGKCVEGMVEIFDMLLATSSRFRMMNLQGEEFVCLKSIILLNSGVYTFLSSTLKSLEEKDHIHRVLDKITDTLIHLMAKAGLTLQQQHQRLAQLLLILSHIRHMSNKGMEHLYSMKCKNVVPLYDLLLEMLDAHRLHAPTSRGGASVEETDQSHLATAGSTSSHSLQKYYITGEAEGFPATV

human ERβ = biological target: T2, human ERβ (Homo sapiens, UniProt Q92731); assay: Estrogen receptor fluorescence polarisation competitive binding assay, ERβ; settings: fluoromone ligand
T2 construct: purchased Invitrogen; host or cells: baculovirus expression system
T2 sequence (Q92731 whole entry): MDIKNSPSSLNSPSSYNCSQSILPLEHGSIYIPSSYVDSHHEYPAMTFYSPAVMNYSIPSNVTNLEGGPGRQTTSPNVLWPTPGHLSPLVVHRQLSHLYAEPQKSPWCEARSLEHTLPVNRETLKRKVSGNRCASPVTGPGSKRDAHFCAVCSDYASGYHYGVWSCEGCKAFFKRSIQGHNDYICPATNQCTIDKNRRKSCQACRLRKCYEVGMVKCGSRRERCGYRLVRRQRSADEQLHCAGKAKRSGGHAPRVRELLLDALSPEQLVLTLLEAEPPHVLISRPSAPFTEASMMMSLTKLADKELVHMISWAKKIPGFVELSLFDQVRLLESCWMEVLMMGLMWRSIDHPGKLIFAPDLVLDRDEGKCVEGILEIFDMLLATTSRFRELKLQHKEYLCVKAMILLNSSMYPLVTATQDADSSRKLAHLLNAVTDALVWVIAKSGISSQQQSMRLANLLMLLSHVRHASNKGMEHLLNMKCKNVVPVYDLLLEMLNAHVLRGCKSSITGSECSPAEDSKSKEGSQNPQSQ

[6] = mean of at least three experiments in triplicate

half-life at 14.6 µg/mL [1] [h]	IC50 [2, 6] [nM]	IC50 [3] [nM]	IC50 ([2]; values in nM) [nM]	IC50 (human ERα)	Selectivity (α/β) (human ERα)	IC50 (human ERβ)	Structure (SMILES)	% Cell Death at 10 μM [4] [%]	% Cell Death at 10 μM [5] [%]
> 24	41	4090					CCC(=C(c1ccc(O)cc1)c1ccc(OCCN(C)C(=O)/C(=C/c2cc(OC)c(OC)c(OC)c2)c2ccc(OC)cc2)cc1)c1ccc(O)cc1 (mixture of isomers) [Compound 32, (E)-N-(2-{4-[(E/Z)-1,2-Bis-(4-hydroxyphenyl)but-1-enyl]phenoxy}ethyl)-2-(4-methoxyphenyl)-N-methyl-3-(3,4,5-trimethoxyphenyl)acrylamide]	16	0
	29		0.029	47 nM	2.52	118 nM	CCC(=C(c1ccc(O)cc1)c1ccc(OCCNC)cc1)c1ccccc1 [Compound 11, 4-{1-[4-(2-Methylaminoethoxy)phenyl]-2-phenylbut-1-enyl}phenol, reference compound]	23	
	28			44.1 nM and 44 nM	0.90	39.7 nM and 40 nM	CCC(=C(c1ccc(O)cc1)c1ccc(OCCNC)cc1)c1ccc(O)cc1 [Compound 12, 4-(1-(4-(2-(Methylamino)ethoxy)phenyl)-2-(4-hydroxyphenyl)but-1-enyl)phenol]	11	

Source: PMC5344255, “Design, Synthesis and Biochemical Evaluation of Novel Selective Estrogen Receptor Ligand Conjugates Incorporating an Endoxifen-Combretastatin Hybrid Scaffold” (Biomedicines, 2016)
